The test system of one experiment is M109. Kind of experiment: Cytotoxicity against mouse M109 cells. It is filed as functional, cell-based.
In another experiment the test system is Saccharomyces cerevisiae. In words: Antimicrobial activity against yeast Sc7. It is filed as functional.

Values after ≈ are worked out from the molar mass of the structure shown.

`C/C=C1/C(=O)O[C@]23C=C[C@@H]4C(C(=O)OC)=CO[C@H](O[C@@H]12)[C@@H]43` [PLUMERICIN] showed an IC50 in the experiment on M109 of 100 µg/mL (≈ 345 µM). The IC12 in the experiment with Saccharomyces cerevisiae was determined as 74 µg/mL.
In turn, `C/C=C1\C(=O)O[C@]23C=C[C@@H]4C(C(=O)OC)=CO[C@H](O[C@@H]12)[C@@H]43` [ISOPLUMERICIN] returned an IC50 with M109 of 25 µg/mL (≈ 86.1 µM). Besides, in the experiment on Saccharomyces cerevisiae, the IC12 worked out at 42 µg/mL.
